Measured values as given in ChEMBL document CHEMBL4819035, “C-2-Linked Dimeric Strychnine Analogues as Bivalent Ligands Targeting Glycine Receptors” (J Nat Prod, 2021).

Tests used:
[1] = target: T1, Glycine receptor subunit alpha-1 (Homo sapiens, UniProt P23415); experiment: Antagonist activity at human glycine receptor subunit alpha-1 expressed in human tsA201 cells assessed as reduction in glycine-induced response incubated for 30 mins by fluorescence-based FLIPR membrane potential blue assay; format: cell-based
T1 sequence (P23415 whole entry): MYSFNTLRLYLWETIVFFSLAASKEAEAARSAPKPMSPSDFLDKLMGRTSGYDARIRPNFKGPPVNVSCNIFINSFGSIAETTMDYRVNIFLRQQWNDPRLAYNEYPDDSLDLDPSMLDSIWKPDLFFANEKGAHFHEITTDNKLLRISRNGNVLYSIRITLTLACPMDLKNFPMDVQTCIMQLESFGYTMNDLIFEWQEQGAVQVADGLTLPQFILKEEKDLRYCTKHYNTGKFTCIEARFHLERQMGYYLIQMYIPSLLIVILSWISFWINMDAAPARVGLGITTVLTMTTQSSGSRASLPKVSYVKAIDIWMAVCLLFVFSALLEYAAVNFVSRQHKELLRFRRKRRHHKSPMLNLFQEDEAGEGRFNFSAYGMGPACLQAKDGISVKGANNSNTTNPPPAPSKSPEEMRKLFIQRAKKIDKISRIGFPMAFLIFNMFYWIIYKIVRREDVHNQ

[2] = target: T2, Glycine receptor (alpha-1/beta) (Homo sapiens, UniProt P23415+P48167); experiment: Antagonist activity at human glycine receptor subunit alpha-1beta expressed in human tsA201 cells assessed as reduction in glycine-induced response incubated for 30 mins by fluorescence-based FLIPR membrane potential blue assay; format: cell-based; settings: for pIC50: tsa201
T2 sequence (P48167 whole entry, one chain of several): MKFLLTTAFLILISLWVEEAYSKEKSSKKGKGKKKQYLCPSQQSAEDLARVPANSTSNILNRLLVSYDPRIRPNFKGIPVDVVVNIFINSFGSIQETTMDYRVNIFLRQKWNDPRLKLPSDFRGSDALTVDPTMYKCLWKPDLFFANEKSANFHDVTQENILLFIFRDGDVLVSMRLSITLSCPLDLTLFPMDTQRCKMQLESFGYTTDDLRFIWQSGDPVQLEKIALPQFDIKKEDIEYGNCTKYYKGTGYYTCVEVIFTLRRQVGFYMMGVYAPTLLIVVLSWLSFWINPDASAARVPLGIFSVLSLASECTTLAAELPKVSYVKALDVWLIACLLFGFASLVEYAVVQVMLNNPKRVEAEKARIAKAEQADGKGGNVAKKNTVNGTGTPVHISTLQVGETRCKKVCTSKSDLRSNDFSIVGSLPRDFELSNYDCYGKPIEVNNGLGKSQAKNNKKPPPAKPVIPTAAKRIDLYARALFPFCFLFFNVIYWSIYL

[3] = target: T1, Glycine receptor subunit alpha-1; experiment: Antagonist activity at human glycine receptor subunit alpha-1 expressed in HEK293 cells assessed as reduction in glycine-induced currents by whole-cell patch-clamp assay; format: cell-based
[4] = target: T1, Glycine receptor subunit alpha-1; experiment: Displacement of [3H]strychnine from human glycine receptor subunit alpha-1 expressed in HEK293 cell membranes preincubated for 30 mins followed by [3H]strychnine addition and measured after 30 mins by liquid scintillation counting method; design: species or system Membrane
[5] = target: T1, Glycine receptor subunit alpha-1; experiment: Antagonist activity at human glycine receptor subunit alpha-1 assessed as inhibition of glycine-induced current measured at the onset of compound application by patch-clamp assay
[6] = target: T1, Glycine receptor subunit alpha-1; experiment: Antagonist activity at human glycine receptor subunit alpha-1 assessed as inhibition of glycine-induced current measured at the later state of compound application by patch-clamp assay
[7] = target: T2, Glycine receptor (alpha-1/beta); experiment: Antagonist activity at human glycine receptor subunit alpha-1beta expressed in HEK293 cells assessed as reduction in glycine-induced currents by whole-cell patch-clamp assay; format: cell-based

Row | SMILES | IC50 ([1]; read-out: IC50) [nM] | IC50 ([2]; read-out: IC50) [nM] | IC50 [3] [nM] | other results
1 | O=C(CCCCCCCCCCC(=O)NCCCCCCCCCCC(=O)Nc1ccc2c(c1)[C@@]13CCN4CC5=CCO[C@H]6CC(=O)N2[C@H]1[C@H]6[C@H]5C[C@H]43)NCCCCCCCCCCC(=O)Nc1ccc2c(c1)[C@@]13CCN4CC5=CCO[C@H]6CC(=O)N2[C@H]1[C@H]6[C@H]5C[C@H]43 | 30000 | 50000 | 3100 | IC50 ([2]; read-out: pIC50 (converted)): 31600 nM
2 | O=C(CCCCCCCCCCCCCCCCCCCCC(=O)NCCCCCCCCCCC(=O)Nc1ccc2c(c1)[C@@]13CCN4CC5=CCO[C@H]6CC(=O)N2[C@H]1[C@H]6[C@H]5C[C@H]43)NCCCCCCCCCCC(=O)Nc1ccc2c(c1)[C@@]13CCN4CC5=CCO[C@H]6CC(=O)N2[C@H]1[C@H]6[C@H]5C[C@H]43 | > 10000 | > 10000 | 2900 | pIC50 ([1]; tsa201): < 5; pIC50 [2]: < 5
3 | CCCCCCCC(=O)Nc1ccc2c(c1)[C@@]13CCN4CC5=CCO[C@H]6CC(=O)N2[C@H]1[C@H]6[C@H]5C[C@H]43 | 1200 | 680 |  | 
4 | O=C(CCOCCOCCOCCOCCOCCOCCOCCOCCOCCOCCOCCOCCC(=O)NCCCCC(=O)Nc1ccc2c(c1)[C@@]13CCN4CC5=CCO[C@H]6CC(=O)N2[C@H]1[C@H]6[C@H]5C[C@H]43)NCCCCC(=O)Nc1ccc2c(c1)[C@@]13CCN4CC5=CCO[C@H]6CC(=O)N2[C@H]1[C@H]6[C@H]5C[C@H]43 | 4300 | 1800 |  | Ki [4]: 81 nM; IC50 [5]: 1340 nM; IC50 [6]: 55 nM
5 | O=C(CCOCCOCCOCCOCCOCCOCCOCCOCCOCCOCCOCCOCCC(=O)NCCCCCCCCCCC(=O)Nc1ccc2c(c1)[C@@]13CCN4CC5=CCO[C@H]6CC(=O)N2[C@H]1[C@H]6[C@H]5C[C@H]43)NCCCCCCCCCCC(=O)Nc1ccc2c(c1)[C@@]13CCN4CC5=CCO[C@H]6CC(=O)N2[C@H]1[C@H]6[C@H]5C[C@H]43 | 10000 | 3900 |  | Ki [4]: 204 nM; IC50 [5]: 3310 nM; IC50 [6]: 67 nM
6 | O=C(CCCCCCCCCCC(=O)Nc1ccc2c(c1)[C@@]13CCN4CC5=CCO[C@H]6CC(=O)N2[C@H]1[C@H]6[C@H]5C[C@H]43)Nc1ccc2c(c1)[C@@]13CCN4CC5=CCO[C@H]6CC(=O)N2[C@H]1[C@H]6[C@H]5C[C@H]43 | 1100 | 1800 | 720 | IC50 [7]: 800 nM
7 | O=C(CCCCC(=O)Nc1ccc2c(c1)[C@@]13CCN4CC5=CCO[C@H]6CC(=O)N2[C@H]1[C@H]6[C@H]5C[C@H]43)Nc1ccc2c(c1)[C@@]13CCN4CC5=CCO[C@H]6CC(=O)N2[C@H]1[C@H]6[C@H]5C[C@H]43 | 6100 | 10000 |  | 
8 | O=C(CCCCCCCCCCCCCCC(=O)NCCCCC(=O)Nc1ccc2c(c1)[C@@]13CCN4CC5=CCO[C@H]6CC(=O)N2[C@H]1[C@H]6[C@H]5C[C@H]43)NCCCCC(=O)Nc1ccc2c(c1)[C@@]13CCN4CC5=CCO[C@H]6CC(=O)N2[C@H]1[C@H]6[C@H]5C[C@H]43 | 7900 | 4100 |  | 
9 | COCCOCCOCCOCCOCCOCCOCCOCCOCCOCCOCCOCCC(=O)NCCCCC(=O)Nc1ccc2c(c1)[C@@]13CCN4CC5=CCO[C@H]6CC(=O)N2[C@H]1[C@H]6[C@H]5C[C@H]43 | 15000 | 10000 |  | Ki [4]: 436 nM; IC50 [5]: 852 nM; IC50 [6]: 137 nM
10 | O=C(CCC(=O)Nc1ccc2c(c1)[C@@]13CCN4CC5=CCO[C@H]6CC(=O)N2[C@H]1[C@H]6[C@H]5C[C@H]43)Nc1ccc2c(c1)[C@@]13CCN4CC5=CCO[C@H]6CC(=O)N2[C@H]1[C@H]6[C@H]5C[C@H]43 | 10000 | 10000 |  | 
11 | O=C(CCCCCCCCCCCCC(=O)NCC(=O)Nc1ccc2c(c1)[C@@]13CCN4CC5=CCO[C@H]6CC(=O)N2[C@H]1[C@H]6[C@H]5C[C@H]43)NCC(=O)Nc1ccc2c(c1)[C@@]13CCN4CC5=CCO[C@H]6CC(=O)N2[C@H]1[C@H]6[C@H]5C[C@H]43 | 1700 | 2000 |  | 
12 | O=C(CCCCCCC(=O)NCCCCCCCCCCC(=O)Nc1ccc2c(c1)[C@@]13CCN4CC5=CCO[C@H]6CC(=O)N2[C@H]1[C@H]6[C@H]5C[C@H]43)NCCCCCCCCCCC(=O)Nc1ccc2c(c1)[C@@]13CCN4CC5=CCO[C@H]6CC(=O)N2[C@H]1[C@H]6[C@H]5C[C@H]43 | 30000 | 20000 | 1400 | IC50 ([2]; read-out: pIC50 (converted)): 50100 nM
13 | CCCCCCCC(=O)NCC(=O)Nc1ccc2c(c1)[C@@]13CCN4CC5=CCO[C@H]6CC(=O)N2[C@H]1[C@H]6[C@H]5C[C@H]43 | 780 | 510 | 90 | 
14 | O=C(CCCCCCCC(=O)NCC(=O)Nc1ccc2c(c1)[C@@]13CCN4CC5=CCO[C@H]6CC(=O)N2[C@H]1[C@H]6[C@H]5C[C@H]43)NCC(=O)Nc1ccc2c(c1)[C@@]13CCN4CC5=CCO[C@H]6CC(=O)N2[C@H]1[C@H]6[C@H]5C[C@H]43 | 2100 | 1700 | 400 | 
15 | O=C(CCCCCC(=O)NCC(=O)Nc1ccc2c(c1)[C@@]13CCN4CC5=CCO[C@H]6CC(=O)N2[C@H]1[C@H]6[C@H]5C[C@H]43)NCC(=O)Nc1ccc2c(c1)[C@@]13CCN4CC5=CCO[C@H]6CC(=O)N2[C@H]1[C@H]6[C@H]5C[C@H]43 | 2800 | 2200 | 130 | IC50 ([1]; read-out: pIC50 (converted)): 2690 nM
16 | O=C(CCCCCCC(=O)NCC(=O)Nc1ccc2c(c1)[C@@]13CCN4CC5=CCO[C@H]6CC(=O)N2[C@H]1[C@H]6[C@H]5C[C@H]43)NCC(=O)Nc1ccc2c(c1)[C@@]13CCN4CC5=CCO[C@H]6CC(=O)N2[C@H]1[C@H]6[C@H]5C[C@H]43 | 2800 | 2400 | 170 | 
17 | O=C(CCCCCCCCCCCCCCC(=O)NCC(=O)Nc1ccc2c(c1)[C@@]13CCN4CC5=CCO[C@H]6CC(=O)N2[C@H]1[C@H]6[C@H]5C[C@H]43)NCC(=O)Nc1ccc2c(c1)[C@@]13CCN4CC5=CCO[C@H]6CC(=O)N2[C@H]1[C@H]6[C@H]5C[C@H]43 | 3200 | 2200 |  | 
18 | COCCOCCOCCOCCOCCOCCOCCOCCOCCOCCOCCOCCC(=O)NCCCCCCCCCCC(=O)Nc1ccc2c(c1)[C@@]13CCN4CC5=CCO[C@H]6CC(=O)N2[C@H]1[C@H]6[C@H]5C[C@H]43 | 20000 | 10000 |  | Ki [4]: 977 nM; IC50 [5]: 5720 nM; IC50 [6]: 158 nM
19 | O=C(CCCCCCCCCCCCCCC(=O)NCCCCCCCCCCC(=O)Nc1ccc2c(c1)[C@@]13CCN4CC5=CCO[C@H]6CC(=O)N2[C@H]1[C@H]6[C@H]5C[C@H]43)NCCCCCCCCCCC(=O)Nc1ccc2c(c1)[C@@]13CCN4CC5=CCO[C@H]6CC(=O)N2[C@H]1[C@H]6[C@H]5C[C@H]43 | 10000 | > 10000 |  | pIC50 [2]: < 5
20 | O=C(CCCCCCCCC(=O)NCC(=O)Nc1ccc2c(c1)[C@@]13CCN4CC5=CCO[C@H]6CC(=O)N2[C@H]1[C@H]6[C@H]5C[C@H]43)NCC(=O)Nc1ccc2c(c1)[C@@]13CCN4CC5=CCO[C@H]6CC(=O)N2[C@H]1[C@H]6[C@H]5C[C@H]43 | 730 | 880 |  | 
21 | O=C(CCCC(=O)Nc1ccc2c(c1)[C@@]13CCN4CC5=CCO[C@H]6CC(=O)N2[C@H]1[C@H]6[C@H]5C[C@H]43)Nc1ccc2c(c1)[C@@]13CCN4CC5=CCO[C@H]6CC(=O)N2[C@H]1[C@H]6[C@H]5C[C@H]43 | 10000 | 30000 |  | 
22 | O=C(CCCCCCCCCCC(=O)NCC(=O)Nc1ccc2c(c1)[C@@]13CCN4CC5=CCO[C@H]6CC(=O)N2[C@H]1[C@H]6[C@H]5C[C@H]43)NCC(=O)Nc1ccc2c(c1)[C@@]13CCN4CC5=CCO[C@H]6CC(=O)N2[C@H]1[C@H]6[C@H]5C[C@H]43 | 2700 | 1900 | 100 | 
23 | CCCCCCCC(=O)NCCCCCCCCCCC(=O)Nc1ccc2c(c1)[C@@]13CCN4CC5=CCO[C@H]6CC(=O)N2[C@H]1[C@H]6[C@H]5C[C@H]43 | 10000 | 5800 | 1700 | 
24 | O=C(CCCCCCCCCCCCC(=O)Nc1ccc2c(c1)[C@@]13CCN4CC5=CCO[C@H]6CC(=O)N2[C@H]1[C@H]6[C@H]5C[C@H]43)Nc1ccc2c(c1)[C@@]13CCN4CC5=CCO[C@H]6CC(=O)N2[C@H]1[C@H]6[C@H]5C[C@H]43 | 430 | 210 |  | 
